Molecular target: T1, human serum albumin (HSA) (Homo sapiens, UniProt P02768)
T1 construct: gene ALB; full-length, fatty acid and globulin-free HSA purified from serum
Assay: ITC ([…]°C, pH […]), two sets of independent sites; confirmed by 1H NMR chemical shift titration (Kd1 […])
Format: binding

T1 sequence (P02768 25-609): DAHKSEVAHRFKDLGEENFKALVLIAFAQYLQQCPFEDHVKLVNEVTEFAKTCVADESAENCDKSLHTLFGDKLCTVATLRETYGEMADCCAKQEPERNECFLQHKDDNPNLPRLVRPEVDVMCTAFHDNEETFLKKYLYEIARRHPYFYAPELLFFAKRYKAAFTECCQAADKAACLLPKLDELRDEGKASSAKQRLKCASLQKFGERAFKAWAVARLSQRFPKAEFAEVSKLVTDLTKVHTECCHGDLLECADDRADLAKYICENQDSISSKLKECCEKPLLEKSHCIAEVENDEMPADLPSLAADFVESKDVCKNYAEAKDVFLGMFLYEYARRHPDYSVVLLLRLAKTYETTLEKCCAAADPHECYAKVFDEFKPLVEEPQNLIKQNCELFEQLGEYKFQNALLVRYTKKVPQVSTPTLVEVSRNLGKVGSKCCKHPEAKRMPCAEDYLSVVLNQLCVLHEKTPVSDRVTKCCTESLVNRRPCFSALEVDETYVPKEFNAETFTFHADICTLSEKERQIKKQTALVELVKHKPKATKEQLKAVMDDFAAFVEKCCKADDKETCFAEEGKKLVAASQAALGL

O=C(O[C@@H]1Cc2c(O)cc(O)cc2O[C@@H]1c1cc(O)c(O)c(O)c1)c1cc(O)c(O)c(O)c1 [epigallocatechin gallate]
Kd: 22 ± 4 µM

From article PMC5484023, “Multi-site binding of epigallocatechin gallate to human serum albumin measured by NMR and isothermal titration calorimetry” (Bioscience Reports, 2017)
